According to patent publication US20080058409A1, “Esterified Catechins, Processes for Producing the Same, and Foods and Beverages as well as Cosmetics Containing Such Esterified Catechins” (priority 2005, published 2008):

Experiments:
Bacillus subtilis spores = test: Assay of antibacterial activity (growth inhibition, absorbance at 690 nm) against Bacillus subtilis spores; type: cell-based; details: spores 1×10^7/ml, nutrient broth pH 7.0, cultured overnight at 37° C., percent growth inhibition from absorbance at 690 nm
Method: (§1) Into each well, 50 μl of a nutrient broth (pH 7.0, NISSUI PHARMACEUTICAL CO., LTD.) was added and cultured overnight at 37° C. The light absorbance at 690 nm was measured both at the start and end of the culture by means of a micro-plate reader (Thermolab Systems, Finland). Based on the percent growth inhibition calculated from the following formula, a distribution diagram was constructed plotting percent inhibition and sample concentration on the two axes and the 50% inhibition (IC50) of the spore forming bacterium by the substances of the present invention was determined. Percent growth inhibition (%)=100×{Δ690 (not added)−Δ690 (sample added)}/Δ690 (not added) where Δ690 (not added) refers to the difference between the 690 nm values in the “not-added” group before and after the culture and Δ690 (sample added) refers to the difference between the 690 nm values in the “sample-added” group before and after the culture.

[1] = tested on: Alicyclobacillus acidoterrestris; test: Assay of antibacterial activity (growth inhibition) against heat-resistant acidophilic spore-forming bacterium Alicyclobacillus acidoterrestris; type: cell-based; details: culture temperature 45° C., liquid medium (yeast extract, soluble starch, glucose) adjusted to pH 3.8
Method: as §1
Activity against the heat-resistant acidophilic spore-forming bacterium Alicyclobacillus acidoterrestris was determined by taking the same procedure, except that a change was made in two points, the culture temperature condition and the type of liquid medium [culture temperature: 45° C.; liquid medium: 0.4% dry yeast extract (Difco Laboratories), 0.4% soluble starch (nacalai tesque), 1% glucose (nacalai tesque), adjusted to pH 3.8 with 1 N sulfuric acid].

| Molecule | IC50 (ppm) B. subtilis (Bacillus subtilis spores) | IC50 (ppm) A. acidoterrestris [1] |
| --- | --- | --- |
| 3′(or 4′),3-di-O-octanoyl-(+)-D-catechin | 3.125-6.25 ppm | 6.25-12.5 ppm |
| 3′(or 4′),5-di-O-octanoyl-(+)-D-catechin | 6.25-12.5 ppm | 6.25-12.5 ppm |
| 3′(or 4′),7-di-O-octanoyl-(+)-D-catechin | 6.25-12.5 ppm | 50-100 ppm |
| 3′-O-cotanoyl and 4′-octanoyl-(+)-D-catechin | 200-400 ppm | 25-50 ppm |
| CCCCCCCC(=O)Oc1cc(O)cc2c1C[C@H](OC(=O)CCCCCCC)[C@@H](c1ccc(O)c(O)c1)O2 [3,5-di-O-octanoyl-(+)-D-catechin] | 100-200 ppm | 50-100 ppm |
| CCCCCCCC(=O)Oc1cc(O)c2c(c1)O[C@H](c1ccc(O)c(O)c1)[C@@H](OC(=O)CCCCCCC)C2 [3,7-di-O-octanoyl-(+)-D-catechin] | 25-50 ppm | 12.5-25 ppm |
| CCCCCCCC(=O)Oc1ccc([C@H]2Oc3cc(O)cc(O)c3C[C@@H]2O)cc1OC(=O)CCCCCCC [3′4′-O-dioctanoyl-(+)-D-catechin] | >400 ppm | 12.5-25 ppm |
| CCCCCCCC(=O)Oc1cc(OC(=O)CCCCCCC)c2c(c1)O[C@H](c1ccc(O)c(O)c1)[C@@H](O)C2 [5,7-di-O-octanoyl-(+)-D-catechin] | >400 ppm | 100-200 ppm |
| Catechin [reference compound] | >400 ppm | 50-100 ppm |
| Sucrose fatty acid ester [reference compound] | 50-100 ppm | 100-200 ppm |
